# Measurements taken from PubChem BioAssay AID1963854 (Molecular Pharmacology Branch, DTP, NCI, 2024).
# System: 186277-243-T-J2-PDC complex spheroid viability
# Assay: Anticancer human tumor 186277-243-T-J2-PDC patient-derived colon adenocarcinoma cell line growth inhibition [POLQ]
# Conditions: for IC50: curve of first compound; for viability, T/C: stronger effect = lower value
# Outline: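 Growth inhibition in 3D: complex spheroids (tumor PDC, HUVEC, MSC) treated with POLQ inhibitor combinations; where Cmax unknown, highest tested concentration 10 microM, except SN-38 at 1 microM.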
# [1] = second compound 0.0316 µM, first compound 0.0316 µM
# [2] = second compound 0.0316 µM, first compound 0.1 µM
# [3] = second compound 0.0316 µM, first compound 0.316 µM
# [4] = second compound 0.0316 µM, first compound 1 µM
# [5] = second compound 0.0316 µM, first compound 3.16 µM
# [6] = second compound 0.0316 µM, first compound 10 µM
# [7] = second compound 0.1 µM, first compound 0.0316 µM
# [8] = second compound 0.1 µM, first compound 0.1 µM
# [9] = second compound 0.1 µM, first compound 0.316 µM
# [10] = second compound 0.1 µM, first compound 1 µM
# [11] = second compound 0.1 µM, first compound 3.16 µM
# [12] = second compound 0.1 µM, first compound 10 µM
# [13] = second compound 0.316 µM, first compound 0.0316 µM
# [14] = second compound 0.316 µM, first compound 0.1 µM
# [15] = second compound 0.316 µM, first compound 0.316 µM
# [16] = second compound 0.316 µM, first compound 1 µM
# [17] = second compound 0.316 µM, first compound 3.16 µM
# [18] = second compound 0.316 µM, first compound 10 µM
# [19] = second compound 1 µM, first compound 0.0316 µM
# [20] = second compound 1 µM, first compound 0.1 µM
# [21] = second compound 1 µM, first compound 0.316 µM
# [22] = second compound 1 µM, first compound 1 µM
# [23] = second compound 1 µM, first compound 3.16 µM
# [24] = second compound 1 µM, first compound 10 µM
# [25] = second compound 3.16 µM, first compound 0.0316 µM
# [26] = second compound 3.16 µM, first compound 0.1 µM
# [27] = second compound 3.16 µM, first compound 0.316 µM
# [28] = second compound 3.16 µM, first compound 1 µM
# [29] = second compound 3.16 µM, first compound 3.16 µM
# [30] = second compound 3.16 µM, first compound 10 µM
# [31] = second compound 10 µM, first compound 0.0316 µM
# [32] = second compound 10 µM, first compound 0.1 µM
# [33] = second compound 10 µM, first compound 0.316 µM
# [34] = second compound 10 µM, first compound 1 µM
# [35] = second compound 10 µM, first compound 3.16 µM
# [36] = second compound 10 µM, first compound 10 µM
# 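Also: spheroids exposed to compounds for seven days.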
# 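For viability, T/C in this document: 100% = DMSO vehicle control viability.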
smiles,measurement,setting,value
CC1COCCN1c1cc(C2(S(C)(=N)=O)CC2)nc(-c2ccnc3[nH]ccc23)n1 (centres undefined) + Cc1cccc(N(C)C(=O)C2C(O)CCN2c2nc(C)cc(C(F)(F)F)c2C#N)c1,IC50,second compound 0.0316 µM,861 nM
same,IC50,second compound 0.1 µM,800 nM
same,IC50,second compound 0.316 µM,827 nM
same,IC50,second compound 1 µM,842 nM
same,IC50,second compound 3.16 µM,799 nM
same,IC50,second compound 10 µM,784 nM
same,"viability, T/C",[1],102%
same,"viability, T/C",[2],102%
same,"viability, T/C",[3],99%
same,"viability, T/C",[4],42.6%
same,"viability, T/C",[5],8.14%
same,"viability, T/C",[6],6.1%
same,"viability, T/C",[7],99.1%
same,"viability, T/C",[8],103%
same,"viability, T/C",[9],109%
same,"viability, T/C",[10],37.1%
same,"viability, T/C",[11],8.3%
same,"viability, T/C",[12],5.32%
same,"viability, T/C",[13],117%
same,"viability, T/C",[14],105%
same,"viability, T/C",[15],103%
same,"viability, T/C",[16],39.6%
same,"viability, T/C",[17],7.67%
same,"viability, T/C",[18],6.8%
same,"viability, T/C",[19],97%
same,"viability, T/C",[20],104%
same,"viability, T/C",[21],107%
same,"viability, T/C",[22],40.7%
same,"viability, T/C",[23],7.51%
same,"viability, T/C",[24],5.6%
same,"viability, T/C",[25],108%
same,"viability, T/C",[26],108%
same,"viability, T/C",[27],106%
same,"viability, T/C",[28],35.9%
same,"viability, T/C",[29],8.67%
same,"viability, T/C",[30],6.42%
same,"viability, T/C",[31],102%
same,"viability, T/C",[32],111%
same,"viability, T/C",[33],108%
same,"viability, T/C",[34],34.7%
same,"viability, T/C",[35],7.11%
same,"viability, T/C",[36],5.36%
CC1COCCN1c1cc(-c2ccnn2C)c2ccnc(-c3ccn[nH]3)c2n1 (centres undefined) + Cc1cccc(N(C)C(=O)C2C(O)CCN2c2nc(C)cc(C(F)(F)F)c2C#N)c1,IC50,second compound 0.0316 µM,41.5 nM
same,IC50,second compound 0.1 µM,46.8 nM
same,IC50,second compound 0.316 µM,50.4 nM
same,IC50,second compound 1 µM,48.9 nM
same,IC50,second compound 3.16 µM,46.8 nM
same,IC50,second compound 10 µM,41.7 nM
same,"viability, T/C",[1],61.5%
same,"viability, T/C",[2],13%
same,"viability, T/C",[3],5%
same,"viability, T/C",[4],4.41%
same,"viability, T/C",[5],4.26%
same,"viability, T/C",[6],4.75%
same,"viability, T/C",[7],69.2%
same,"viability, T/C",[8],12.7%
same,"viability, T/C",[9],5.72%
same,"viability, T/C",[10],4.22%
same,"viability, T/C",[11],3.97%
same,"viability, T/C",[12],4.43%
same,"viability, T/C",[13],74.4%
same,"viability, T/C",[14],14.2%
same,"viability, T/C",[15],5.49%
same,"viability, T/C",[16],4.49%
same,"viability, T/C",[17],3.63%
same,"viability, T/C",[18],4.89%
same,"viability, T/C",[19],72.3%
same,"viability, T/C",[20],13.7%
same,"viability, T/C",[21],6.05%
same,"viability, T/C",[22],4.53%
same,"viability, T/C",[23],4.55%
same,"viability, T/C",[24],5.17%
same,"viability, T/C",[25],68.1%
same,"viability, T/C",[26],15.1%
same,"viability, T/C",[27],5.47%
same,"viability, T/C",[28],4.21%
same,"viability, T/C",[29],4.54%
same,"viability, T/C",[30],4.6%
same,"viability, T/C",[31],62.2%
same,"viability, T/C",[32],11.4%
same,"viability, T/C",[33],4.96%
same,"viability, T/C",[34],3.76%
same,"viability, T/C",[35],5.16%
same,"viability, T/C",[36],4.53%
